Several values for one entry are separate records, joined by “and”; a condition that tells them apart may be missing. Identical values can stand only once. Like-named read-outs stand apart in the source and are kept apart here.
Legend:
[1] = molecular target: T1, eIF4E/eIF4G interaction (Mus musculus, UniProt P63073); assay: Fluorescence polarization assay: binding of fluorescein-labeled eIF4G peptide to eIF4E; set-up: species or system murine; details: for IC50 / IC50 (μM) (4E/4G FP): triplicate, SD<±10%; for IC50: read-out: IC50 (μM) (4E/4G FP)
T1 construct: made in house; host or cells: E. coli
Protocol: We adapted this assay to a microwell plate format and used it to screen the 16,000 compound Chembridge DiverSet E library. […] For screening and subsequent peptide binding assays measurements of fluorescence polarization were made using an LJL Analyst plate reader. For the screening assay a solution containing approximately 5 μM meIF4E, 60 nM labeled peptide, 0.05% bovine γ-globulin, and 2 mM DTT in a buffer composed of 50 mM sodium phosphate and 50 mM potassium chloride at pH 6.5 was used. […] The curve fitting for estimation of binding constants used equations derived by Roehrl et al.^22 Measurements of fluorescence polarization and anisotropy were made in black 384-well plates (Corning) using an Analyst plate reader (LJL Biosystems) Compounds were transferred to plates during the screening using a custom-built Seiko pin transfer robot at the Institute for Chemistry and Cell Biology (ICCB) at Harvard Medical School.
A fluorescence polarization (FP) assay was developed to measure binding of a peptide containing the conserved eIF4E-binding motif to eIF4E.
The assay was adapted to a microwell plate format and used to screen a number of libraries comprised of small molecule libraries for potential eIF4E/eIF4G interaction inhibitors.

[2] = test system: A549 lung cancer cells; assay: A549 proliferation, sulforhodamine B (SRB) assay; type: cell-based, human; details: sulforhodamine B assay, triplicate
Protocol: FIG. 28 is a graph showing the results of a cell proliferation assay. A549 cells, which are human lung cancer cells, are grown in plates for five days in medium containing 5% FCS and compound. The number of cells is quantified by staining with sulforhodamine B.

[3] = Homo sapiens, A549, Table 1 of b347
[4] = Homo sapiens, A549, Table 1 of b280

T1 sequence (P63073 whole entry): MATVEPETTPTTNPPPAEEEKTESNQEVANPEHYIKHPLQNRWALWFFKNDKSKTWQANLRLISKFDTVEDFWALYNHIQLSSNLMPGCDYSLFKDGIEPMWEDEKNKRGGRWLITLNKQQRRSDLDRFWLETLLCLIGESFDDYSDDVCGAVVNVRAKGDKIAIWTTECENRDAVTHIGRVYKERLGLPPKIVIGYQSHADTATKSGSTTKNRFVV

| IC50 ([1]; Table 1 of b347) | GI50 [2, 3] | IC50 ([1]; Table 1 of b280) | GI50 [2, 4] | SMILES | other results |
| --- | --- | --- | --- | --- | --- |
| > 600 µM | 7.5 µM |  |  | O=C(O)/C(Cc1ccccc1)=N/Nc1ccc(-c2ccccc2)nn1 [E-17, 3-Phenyl-2-[(6-phenyl-pyridazin-3-yl)-hydrazono]-propionic acid] |  |
|  |  | 170 µM |  | O=C(O)C(Cc1ccccc1)=NNc1nc(-c2ccc3c(c2)OCCO3)cs1 (mixture of isomers) |  |
| > 600 µM |  | > 600 µM |  | O=C(O)/C(Cc1ccccc1)=N/Nc1nc(-c2ccccc2)cs1 [E-4, 3-Phenyl-2-[(4-phenyl-thiazol-2-yl)-hydrazono]-propionic acid] | GI50 ([2]; Table 1): 14 µM and 17 µM; GI50 ([2]; Table 1, listed as E-4c): 16 µM |
| > 600 µM |  | > 600 µM |  | O=C(O)/C(Cc1ccccc1)=N/Nc1nc2ccccc2s1 [Z-11, 2-(Benzothiazol-2-yl-hydrazono)-3-phenyl-propionic acid] | GI50 ([2]; Table 1): > 20 µM; GI50 ([2]; Table 1, listed as Z-4p): > 20 µM |
| > 600 µM | 9 µM |  |  | O=C(O)C(Cc1ccccc1)=NNc1nnc(-c2ccccc2)s1 [E-16, 3-Phenyl-2-[(5-phenyl-[1,3,4]thiadiazol-2-yl)-hydrazono]-propionic acid] |  |
|  | 5 ± 1 µM |  | 6 µM | O=C(O)/C(Cc1ccccc1[N+](=O)[O-])=N/Nc1nc(-c2ccc(Cl)c(Cl)c2)cs1 [Z-1, 2-{[4-(3,4-Dichloro-phenyl)-thiazol-2-yl]-hydrazono}-3-(2-nitro-phenyl)-propionic acid] |  |
| > 600 µM | 7 µM | > 600 µM | 7 µM | C(/Cc1ccccc1)=N/Nc1nc(-c2ccccc2)cs1 [Z-5, N-Phenethylidene-N′-(4-phenyl-thiazol-2-yl)-hydrazine] |  |
| 240 µM | > 20 µM | 240 µM | 17 µM | O=C(O)/C(Cc1ccccc1)=N/Nc1nc(-c2ccccc2)cs1 [Z-4, 3-Phenyl-2-[(4-phenyl-thiazol-2-yl)-hydrazono]-propionic acid] |  |
|  |  | 215 µM | 6 µM | O=C(O)/C(Cc1ccccc1[N+](=O)[O-])=N/Nc1nc(-c2ccc3ccccc3c2)cs1 |  |
|  |  | > 125 µM |  | O=C(O)/C(Cc1ccccc1)=N/Nc1nc(-c2ccc(N3CCOCC3)cc2)cs1 |  |
| > 600 µM | > 20 µM | > 600 µM | > 20 µM | C/C(=N\Nc1nc(-c2ccccc2)cs1)C(=O)O [Z-7, 2-[(4-Phenyl-thiazol-2-yl)-hydrazono]-propionic acid] |  |
| > 600 µM |  | > 600 µM |  | O=C(O)/C(Cc1ccccc1[N+](=O)[O-])=N/Nc1nc(-c2ccccc2)cs1 [Z-2] | GI50 ([2]; Table 1): > 20 µM; GI50 ([2]; Table 1, listed as Z-4r): > 20 µM |
| > 600 µM |  |  |  | O=C(O)C(Cc1ccccc1)C(=O)Nc1nc(-c2ccccc2)cs1 (stereo not shown) [compound 19, 2-Benzyl-N-(4-phenyl-thiazol-2-yl)-malonamic acid] |  |
|  |  | > 600 µM | > 10 µM | O=C(O)/C(Cc1ccccc1)=N/Nc1ccc(-c2ccccc2)nn1 [Z-17, 3-Phenyl-2-[(6-phenyl-pyridazin-3-yl)-hydrazono]-propionic acid] |  |
| > 600 µM | 11 µM | > 600 µM | 11 µM | COC(=O)/C(Cc1ccccc1)=N/Nc1nc(-c2ccccc2)cs1 [Z-13, 3-Phenyl-2-[(4-phenyl-thiazol-2-yl)-hydrazono]-propionic acid methyl ester] |  |
| > 600 µM | 4 µM |  |  | O=[N+]([O-])c1ccccc1CC(CO)NNc1nc(-c2ccc(Cl)c(Cl)c2)cs1 (stereo not shown) [compound 14, 2-{N′-[4-(3,4-Dichloro-phenyl)-thiazol-2-yl]-hydrazino}-3-(2-nitro-phenyl)-propan-1-ol] |  |
|  |  | > 600 µM |  | O=C(NC(Cc1ccccc1)C(=O)O)c1nc(-c2ccccc2)cs1 (stereo not shown) [drawing 69] |  |
| > 600 µM | > 10 µM | > 600 µM | > 10 µM | O=C(O)/C(Cc1ccccc1)=N\Nc1nnc(-c2ccccc2)s1 [Z-16, 3-Phenyl-2-[(5-phenyl-[1,3,4]thiadiazol-2-yl)-hydrazono]-propionic acid] |  |
|  |  | > 600 µM | > 20 µM | O=C(O)/C(Cc1ccccc1[N+](=O)[O-])=N/Nc1nc(-c2ccc(N3CCCC3)cc2)cs1 |  |
|  |  |  |  | COC(=O)/C(Cc1ccccc1)=N/Nc1nc(-c2ccccc2)cs1 [E-13, 3-Phenyl-2-[(4-phenyl-thiazol-2-yl)-hydrazono]-propionic acid methyl ester] | GI50 ([2]; Table 1): 7 µM; GI50 ([2]; Table 1, listed as E-4f): 7 µM |
| > 600 µM | 13 µM | > 600 µM | 13 µM | O=C(O)/C(=N/Nc1nc(-c2ccccc2)cs1)c1ccccc1 [Z-6, Phenyl-[(4-phenyl-thiazol-2-yl)-hydrazono]-acetic acid] |  |

| IC50 ([1]; Table 1 of b347) | GI50 [2, 3] | IC50 ([1]; Table 1 of b280) | GI50 [2, 4] | SMILES | other results |
| --- | --- | --- | --- | --- | --- |
| 355 µM |  | 355 µM |  | O=C(O)/C(Cc1ccccc1)=N/Nc1nc(-c2ccc(Cl)c(Cl)c2)cs1 [E-3, 2-{[4-(3,4-Dichloro-phenyl)thiazol-2-yl]-hydrazono}-3-phenyl-propionic acid] | GI50 ([2]; Table 1): 6.5 µM; GI50 ([2]; Table 1, listed as E-4s): 6.5 µM |
|  |  | 300 µM |  | O=C(O)/C(Cc1ccccc1)=N/Nc1nc(-c2ccc(Cl)c(Cl)c2)cs1 [Z-3, 2-{[4-(3,4-Dichloro-phenyl)thiazol-2-yl]-hydrazono}-3-phenyl-propionic acid] | GI50 ([2]; Table 1): 14 µM; GI50 ([2]; Table 1, listed as Z-4s): 14 µM |
|  |  | > 600 µM |  | O=C(O)C(Cc1ccccc1)C(=O)Nc1nc(-c2ccccc2)cs1 (stereo not shown) [drawing 70] |  |
|  |  |  |  | O=C(O)/C(Cc1ccccc1)=N/Nc1nc2ccccc2s1 [E-11, 2-(Benzothiazol-2-yl-hydrazono)-3-phenyl-propionic acid] | GI50 ([2]; Table 1): 4 µM; GI50 ([2]; Table 1, listed as E-4p): 4 µM |
|  |  | 150 µM | 4 µM | O=C(O)C(Cc1ccccc1[N+](=O)[O-])=NNc1nc(-c2ccc(/N=N/c3ccccc3)cc2)cs1 (mixture of isomers) |  |
| 240 µM | 4 µM | 240 µM | 4 µM | Cc1sc(N/N=C(\Cc2ccccc2)C(=O)O)nc1-c1ccccc1 [Z-9, 2-[(5-Methyl-4-phenyl-thiazol-2-yl)-hydrazono]-3-phenyl-propionic acid] |  |
| 50 µM | 1 µM | 50 µM | 1 µM | O=C(O)/C(Cc1ccccc1)=N/Nc1nc(-c2ccccc2)c(-c2ccccc2)s1 [Z-10, 2-[(4,5-Diphenyl-thiazol-2-yl)-hydrazono]-3-phenyl-propionic acid] | potency compared with its E isomer ([1]; eIF4E/4G assay): two-fold more potent; potency compared with the initial hit ([1]; eIF4E/4G assay): one order of magnitude more potent |
| 550 µM | > 10 µM | 550 µM | > 10 µM | O=C(O)/C(Cc1ccccc1)=N/NC(=S)NCc1ccccc1 [compound 8] |  |
| > 600 µM |  |  |  | O=C(O)C(CNc1nc(-c2ccccc2)cs1)Cc1ccccc1 (stereo not shown) [compound 22, 2-Benzyl-3-(4-phenyl-thiazol-2-ylamino)-propionic acid] |  |
| > 600 µM |  |  |  | O=C(NC(Cc1ccccc1)C(=O)O)c1nc(-c2ccccc2)cs1 (stereo not shown) [compound 18, 3-Phenyl-2-[(4-phenyl-thiazole-2-carbonyl)-amino]-propionic acid] |  |
|  |  |  |  | O=C(O)/C(Cc1ccccc1[N+](=O)[O-])=N/Nc1nc(-c2ccccc2)cs1 [E-2] | GI50 ([2]; Table 1): 7 µM; GI50 ([2]; Table 1, listed as E-4r): 7 µM |
|  |  |  |  | O=C(O)C(Cc1ccccc1)NCc1nc(-c2ccccc2)cs1 (stereo not shown) [drawing 71] | IC50 (μM) (4E/4G FP) ([1]; Table 1 of b280): insoluble |
|  |  |  | 4 µM | O=C(O)/C(Cc1ccccc1[N+](=O)[O-])=N/Nc1nc(-c2ccc(-c3ccccc3)cc2)cs1 |  |
|  |  |  |  | O=C(O)C(Cc1ccccc1)NCc1nc(-c2ccccc2)cs1 (stereo not shown) [compound 20, 3-Phenyl-2-[(4-phenyl-thiazol-2-ylmethyl)-amino]-propionic acid] | IC50 (μM) (4E/4G FP) ([1]; Table 1 of b347): insoluble |
|  |  | 400 µM |  | O=C(O)/C(Cc1ccccc1)=N/Nc1nc(-c2ccc3c(c2)OCCCO3)cs1 |  |
|  |  | > 600 µM |  | O=C(O)/C(=C\c1ccccc1)NCc1nc(-c2ccccc2)cs1 |  |
|  |  |  |  | O=C(O)/C(Cc1ccccc1[N+](=O)[O-])=N/Nc1nc(-c2ccc(Cl)c(Cl)c2)cs1 [E-1, 2-{[4-(3,4-Dichloro-phenyl)-thiazol-2-yl]-hydrazono}-3-(2-nitro-phenyl)-propionic acid] | GI50 ([2]; Table 1): 3 µM; GI50 ([2]; Table 1, listed as E-4a): 3 µM |
|  |  | 100 µM |  | O=C(O)C(Cc1ccccc1)=NNc1nc(-c2ccc(C3CCCCC3)cc2)cs1 (mixture of isomers) |  |
| > 600 µM |  |  |  | NC(=O)/C(Cc1ccccc1)=N/Nc1nc(-c2ccccc2)cs1 [E-21, 3-Phenyl-2-[(4-phenyl-thiazol-2-yl)-hydrazono]-propionamide] |  |
|  |  |  |  | O=C(O)/C(=N/Nc1nc(-c2ccccc2)cs1)c1ccccc1 [E-6, Phenyl-[(4-phenyl-thiazol-2-yl)-hydrazono]-acetic acid] | GI50 ([2]; Table 1): 10 µM; GI50 ([2]; Table 1, listed as E-4h): 10 µM |

Source: patent US8257931B2 (President and Fellows of Harvard College, priority 2005, dated 2012)
